Common to all, as to format: functional
For assay [1], the system named is Klebsiella pneumoniae. Kind of assay: Antimicrobial activity against Klebsiella pneumoniae assessed as zone of inhibition at 50 ug/well after 24 hrs by agar well diffusion method. The conditions noted are these: for zone of inhibition at 50 µg/disc: read-out: DIZ. In general terms: Agar diffusion results depend on both activity and mobility in agar.
The test system of assay [2] is Aspergillus niger. Kind of assay: Antifungal activity against Aspergillus niger assessed as zone of inhibition at 100 ug/well after 48 hrs by agar well diffusion method. To be noted: for zone of inhibition at 100 µg/disc: read-out: DIZ.
Assay [3] concerns Staphylococcus aureus. Kind of assay: Antimicrobial activity against Staphylococcus aureus assessed as zone of inhibition at 50 ug/well after 24 hrs by agar well diffusion method. The conditions noted are these: for zone of inhibition at 50 µg/disc: read-out: DIZ.
In assay [4] the test system is Staphylococcus aureus. Kind of assay: Antimicrobial activity against Staphylococcus aureus assessed as zone of inhibition at 75 ug/well after 24 hrs by agar well diffusion method. The conditions noted are these: for zone of inhibition at 75 µg/disc: read-out: DIZ.
Assay [5] relates to Bacillus subtilis. As to the kind of experiment: Antimicrobial activity against Bacillus subtilis assessed as zone of inhibition at 75 ug/well after 24 hrs by agar well diffusion method. The conditions noted are these: for zone of inhibition at 75 µg/disc: read-out: DIZ.
The test system of assay [6] is Penicillium chrysogenum. Kind of assay: Antifungal activity against Penicillium chrysogenum assessed as zone of inhibition at 75 ug/well after 48 hrs by agar well diffusion method. To be noted: for zone of inhibition at 75 µg/disc: read-out: DIZ.
In assay [7] the test system is Aspergillus niger. As to the kind of experiment: Antifungal activity against Aspergillus niger assessed as zone of inhibition at 75 ug/well after 48 hrs by agar well diffusion method. The conditions noted are these: for zone of inhibition at 75 µg/disc: read-out: DIZ.
Assay [8] concerns Pseudomonas aeruginosa. As to the kind of experiment: Antimicrobial activity against Pseudomonas aeruginosa assessed as zone of inhibition at 75 ug/well after 24 hrs by agar well diffusion method. The conditions noted are these: for zone of inhibition at 75 µg/disc: read-out: DIZ.
The subject of assay [9] is Penicillium chrysogenum. Kind of assay: Antifungal activity against Penicillium chrysogenum assessed as zone of inhibition at 100 ug/well after 48 hrs by agar well diffusion method. The conditions noted are these: for zone of inhibition at 100 µg/disc: read-out: DIZ.
Assay [10] deals with Bacillus subtilis. Kind of assay: Antimicrobial activity against Bacillus subtilis assessed as zone of inhibition at 50 ug/well after 24 hrs by agar well diffusion method. To be noted: for zone of inhibition at 50 µg/disc: read-out: DIZ.
Assay [11] relates to Pseudomonas aeruginosa. Kind of assay: Antimicrobial activity against Pseudomonas aeruginosa assessed as zone of inhibition at 100 ug/well after 24 hrs by agar well diffusion method. The conditions noted are these: for zone of inhibition at 100 µg/disc: read-out: DIZ.
Assay [12] concerns Penicillium chrysogenum. Kind of assay: Antifungal activity against Penicillium chrysogenum assessed as zone of inhibition at 50 ug/well after 48 hrs by agar well diffusion method. To be noted: for zone of inhibition at 50 µg/disc: read-out: DIZ.
In assay [13] the test system is Bacillus subtilis. As to the kind of experiment: Antimicrobial activity against Bacillus subtilis assessed as zone of inhibition at 100 ug/well after 24 hrs by agar well diffusion method. The conditions noted are these: for zone of inhibition at 100 µg/disc: read-out: DIZ.
The subject of assay [14] is Klebsiella pneumoniae. As to the kind of experiment: Antimicrobial activity against Klebsiella pneumoniae assessed as zone of inhibition at 100 ug/well after 24 hrs by agar well diffusion method. To be noted: for zone of inhibition at 100 µg/disc: read-out: DIZ.
The subject of assay [15] is Aspergillus niger. As to the kind of experiment: Antifungal activity against Aspergillus niger assessed as zone of inhibition at 50 ug/well after 48 hrs by agar well diffusion method. The conditions noted are these: for zone of inhibition at 50 µg/disc: read-out: DIZ.
In assay [16] the test system is Pseudomonas aeruginosa. Kind of assay: Antimicrobial activity against Pseudomonas aeruginosa assessed as zone of inhibition at 50 ug/well after 24 hrs by agar well diffusion method. To be noted: for zone of inhibition at 50 µg/disc: read-out: DIZ.
For assay [17], the system named is Klebsiella pneumoniae. Kind of assay: Antimicrobial activity against Klebsiella pneumoniae assessed as zone of inhibition at 75 ug/well after 24 hrs by agar well diffusion method. To be noted: for zone of inhibition at 75 µg/disc: read-out: DIZ.
The test system of assay [18] is Staphylococcus aureus. As to the kind of experiment: Antimicrobial activity against Staphylococcus aureus assessed as zone of inhibition at 100 ug/well after 24 hrs by agar well diffusion method. The conditions noted are these: for zone of inhibition at 100 µg/disc: read-out: DIZ.

Active and inactive are the calls of the source. The rule behind the calls is not given here.

The values that follow come from ChEMBL document CHEMBL4251595, “Green approach for the synthesis of thiophenyl pyrazoles and isoxazoles by adopting 1,3-dipolar cycloaddition methodology and their antimicrobial activity” (2018).

As for `O=C(NS(=O)(=O)C1C(c2ccccc2)=NN(c2ccccc2)C1c1ccccc1)c1ccc(Cl)s1` (stereo unspecified), the “diameter of the inhibition zone (DIZ)” value in the assay with Klebsiella pneumoniae [1], in the assay on Staphylococcus aureus [3], in the assay on Staphylococcus aureus [4], in the assay with Penicillium chrysogenum [6], in the assay on Pseudomonas aeruginosa [8] and with Pseudomonas aeruginosa [11] was “inactive” throughout. Also, the “diameter of the inhibition zone (DIZ)” value in the assay on Penicillium chrysogenum [12], in the assay with Pseudomonas aeruginosa [16], with Klebsiella pneumoniae [17] and in the assay on Staphylococcus aureus [18] was “inactive” each time. Also, the zone of inhibition at 100 µg/disc came to 13 mm in the assay on Aspergillus niger [2], 9 mm in the assay with Penicillium chrysogenum [9], 15 mm in the assay on Bacillus subtilis [13] and 11 mm in the assay on Klebsiella pneumoniae [14]. For the same compound, the zone of inhibition at 75 µg/disc with Bacillus subtilis [5] and in the assay on Aspergillus niger [7] was 11 mm throughout. Moreover, the zone of inhibition at 50 µg/disc in the assay with Bacillus subtilis [10] and with Aspergillus niger [15] was 8 mm in each case.

For the compound `O=C(NS(=O)(=O)c1c(-c2ccccc2)noc1-c1ccccc1)c1cccs1`, the zone of inhibition at 50 µg/disc stood at 21 mm in the assay on Klebsiella pneumoniae [1]; 17 mm in the assay with Staphylococcus aureus [3]; 24 mm with Bacillus subtilis [10]; 14 mm in the assay with Penicillium chrysogenum [12]; 18 mm in the assay on Aspergillus niger [15]; 11 mm in the assay on Pseudomonas aeruginosa [16]. For the same compound, the zone of inhibition at 100 µg/disc in the assay with Aspergillus niger [2] came out at 23 mm; in the assay with Penicillium chrysogenum [9] it was 19 mm; with Pseudomonas aeruginosa [11], 15 mm; in the assay with Bacillus subtilis [13] it was 29 mm; in the assay on Klebsiella pneumoniae [14], 26 mm; in the assay on Staphylococcus aureus [18] it was 23 mm. Moreover, the zone of inhibition at 75 µg/disc was 21 mm in the assay with Staphylococcus aureus [4]; 26 mm in the assay with Bacillus subtilis [5]; 16 mm in the assay on Penicillium chrysogenum [6]; 20 mm with Aspergillus niger [7]; 13 mm with Pseudomonas aeruginosa [8]; 24 mm in the assay on Klebsiella pneumoniae [17].

Take `O=C(NS(=O)(=O)C1C(c2ccccc2)=NN(c2ccccc2)C1c1ccc([N+](=O)[O-])cc1)c1ccc(Cl)s1` (stereo unspecified): the zone of inhibition at 50 µg/disc was found to be 12 mm in the assay with Klebsiella pneumoniae [1], 13 mm with Bacillus subtilis [10] and 10 mm in the assay on Aspergillus niger [15]. The zone of inhibition at 100 µg/disc turned out to be 17 mm in the assay with Aspergillus niger [2]; 14 mm in the assay with Penicillium chrysogenum [9]; 19 mm with Bacillus subtilis [13]; 14 mm with Klebsiella pneumoniae [14]; 10 mm in the assay with Staphylococcus aureus [18]. For the same compound, the “diameter of the inhibition zone (DIZ)” value in the assay with Staphylococcus aureus [3], in the assay with Staphylococcus aureus [4], in the assay with Pseudomonas aeruginosa [8], with Pseudomonas aeruginosa [11], with Penicillium chrysogenum [12] and in the assay on Pseudomonas aeruginosa [16] was “inactive” throughout. Also, the zone of inhibition at 75 µg/disc in the assay on Bacillus subtilis [5] is 15 mm; with Penicillium chrysogenum [6], 10 mm; in the assay on Aspergillus niger [7], 14 mm; in the assay on Klebsiella pneumoniae [17], 13 mm.

Take `Cc1ccc(-c2onc(-c3ccccc3)c2S(=O)(=O)NC(=O)c2ccc(Cl)s2)cc1`: the zone of inhibition at 50 µg/disc with Klebsiella pneumoniae [1] was 17 mm; with Staphylococcus aureus [3], 13 mm; in the assay with Bacillus subtilis [10], 21 mm; with Penicillium chrysogenum [12], 14 mm; in the assay on Aspergillus niger [15], 18 mm; in the assay on Pseudomonas aeruginosa [16], 8 mm. For the same compound, the zone of inhibition at 100 µg/disc in the assay with Aspergillus niger [2] was determined as 26 mm; with Penicillium chrysogenum [9] it was 18 mm; with Pseudomonas aeruginosa [11], 14 mm; in the assay on Bacillus subtilis [13], 25 mm; in the assay with Klebsiella pneumoniae [14], 24 mm; in the assay with Staphylococcus aureus [18], 19 mm. Moreover, the zone of inhibition at 75 µg/disc is 17 mm with Staphylococcus aureus [4]; 23 mm in the assay on Bacillus subtilis [5]; 16 mm in the assay with Penicillium chrysogenum [6]; 21 mm in the assay with Aspergillus niger [7]; 10 mm in the assay on Pseudomonas aeruginosa [8]; 22 mm in the assay with Klebsiella pneumoniae [17].

`O=C(NS(=O)(=O)C1C(c2ccccc2)=NOC1c1ccc([N+](=O)[O-])cc1)c1ccc(Cl)s1` (stereo unspecified): the zone of inhibition at 50 µg/disc came out at 9 mm with Klebsiella pneumoniae [1], 13 mm in the assay with Staphylococcus aureus [3], 16 mm with Bacillus subtilis [10] and 9 mm in the assay on Aspergillus niger [15]. Besides, the zone of inhibition at 100 µg/disc in the assay with Aspergillus niger [2] was found to be 15 mm; with Penicillium chrysogenum [9] it was 12 mm; in the assay on Bacillus subtilis [13], 21 mm; in the assay with Klebsiella pneumoniae [14], 13 mm; in the assay on Staphylococcus aureus [18] it was 16 mm. In addition, the zone of inhibition at 75 µg/disc is 14 mm in the assay with Staphylococcus aureus [4]; 19 mm with Bacillus subtilis [5]; 9 mm in the assay with Penicillium chrysogenum [6]; 12 mm with Aspergillus niger [7]; 11 mm in the assay on Klebsiella pneumoniae [17]. In addition, the “diameter of the inhibition zone (DIZ)” value in the assay on Pseudomonas aeruginosa [8], with Pseudomonas aeruginosa [11], in the assay with Penicillium chrysogenum [12] and in the assay with Pseudomonas aeruginosa [16] was “inactive” throughout.

For the compound `O=C(NS(=O)(=O)C1C(c2ccccc2)=NOC1c1ccccc1)c1cccs1` (stereo unspecified), the “diameter of the inhibition zone (DIZ)” value with Klebsiella pneumoniae [1], in the assay with Aspergillus niger [2], in the assay on Staphylococcus aureus [3], in the assay on Staphylococcus aureus [4], with Penicillium chrysogenum [6] and with Aspergillus niger [7] was “inactive” each time. The “diameter of the inhibition zone (DIZ)” value in the assay with Pseudomonas aeruginosa [8], in the assay on Penicillium chrysogenum [9], in the assay on Pseudomonas aeruginosa [11], with Penicillium chrysogenum [12], in the assay with Aspergillus niger [15] and with Pseudomonas aeruginosa [16] was “inactive” in each case. In addition, the “diameter of the inhibition zone (DIZ)” value in the assay with Klebsiella pneumoniae [17] and in the assay on Staphylococcus aureus [18] was “inactive” each time. In the assay on Bacillus subtilis [5], the zone of inhibition at 75 µg/disc was determined as 10 mm. In addition, in the assay with Bacillus subtilis [10], the zone of inhibition at 50 µg/disc worked out at 7 mm. In addition, the zone of inhibition at 100 µg/disc in the assay with Bacillus subtilis [13] came out at 13 mm; with Klebsiella pneumoniae [14], 9 mm.

As for `Cc1ccc(C2C(S(=O)(=O)NC(=O)c3ccc(Cl)s3)C(c3ccccc3)=NN2c2ccccc2)cc1` (stereo unspecified), the “diameter of the inhibition zone (DIZ)” value with Klebsiella pneumoniae [1], with Aspergillus niger [2], with Staphylococcus aureus [3], in the assay with Staphylococcus aureus [4], with Bacillus subtilis [5] and in the assay on Penicillium chrysogenum [6] was “inactive” each time. The “diameter of the inhibition zone (DIZ)” value with Aspergillus niger [7], in the assay with Pseudomonas aeruginosa [8], in the assay on Penicillium chrysogenum [9], in the assay with Bacillus subtilis [10], with Pseudomonas aeruginosa [11] and in the assay on Penicillium chrysogenum [12] was “inactive” each time. The “diameter of the inhibition zone (DIZ)” value in the assay on Bacillus subtilis [13], in the assay on Klebsiella pneumoniae [14], in the assay on Aspergillus niger [15], in the assay on Pseudomonas aeruginosa [16], with Klebsiella pneumoniae [17] and in the assay on Staphylococcus aureus [18] was “inactive” each time.
